Data as given in patent US11530186B2, “Inhibitors for the β-catenin / T-cell factor protein-protein interaction” (H. LEE MOFFITT CANCER CENTER AND RESEARCH INSTITUTE, INC., priority 2018, dated 2022).
Where two headings read alike, the source gives them in different places.

Molecular target: T1, β-catenin/Tcf protein-protein interaction (Homo sapiens, UniProt P35222)
T1 construct: Wild-type β-catenin (residues 138-781) were cloned into a pET-28b vector; 6×histidine (C); made in house; host or cells: E. coli BL21 DE3
T1 sequence (P35222 138-781): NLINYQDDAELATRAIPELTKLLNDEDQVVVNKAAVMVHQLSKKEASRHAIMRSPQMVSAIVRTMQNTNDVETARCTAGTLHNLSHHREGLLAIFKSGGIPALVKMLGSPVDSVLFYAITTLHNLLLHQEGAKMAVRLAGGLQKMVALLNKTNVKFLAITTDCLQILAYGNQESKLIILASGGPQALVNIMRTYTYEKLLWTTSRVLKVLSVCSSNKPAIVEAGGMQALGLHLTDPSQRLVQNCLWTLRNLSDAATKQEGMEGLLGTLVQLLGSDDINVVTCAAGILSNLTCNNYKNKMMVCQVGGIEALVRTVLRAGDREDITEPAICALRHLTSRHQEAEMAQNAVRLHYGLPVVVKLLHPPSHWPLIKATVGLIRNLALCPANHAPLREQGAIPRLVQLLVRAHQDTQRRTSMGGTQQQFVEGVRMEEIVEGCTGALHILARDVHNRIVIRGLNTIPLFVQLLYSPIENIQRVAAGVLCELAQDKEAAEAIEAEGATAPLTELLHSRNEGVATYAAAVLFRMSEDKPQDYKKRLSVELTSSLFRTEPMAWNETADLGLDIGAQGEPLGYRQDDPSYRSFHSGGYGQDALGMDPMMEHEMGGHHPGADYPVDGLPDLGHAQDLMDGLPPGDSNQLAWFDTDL
Test: FP competitive inhibition assay
Type: binding
Procedure: Protein Expression and Purification. Wild-type β-catenin (residues 138-781) were cloned into a pET-28b vector carrying a C-terminal 6×histidine (Novagen) and transformed into E. coli BL21 DE3 (Novagen). Cells were cultured in LB medium with 30 μg/mL kanamycin until the OD600 was approximately 0.8, and then protein expression was induced with 400 μM of IPTG at 20° C. overnight. Cells were lysed by sonication. The proteins were purified by Ni-NTA affinity chromatography (30210, Qiagen) and dialyzed against a buffer containing 20 mM of Tris (pH 8.8), 100 mM NaCl, 10% glycerol, and 3 mM DTT. The purity of β-catenin was set to >95% as determined by SDS-PAGE gel analysis. Native non-denaturing gel electrophoresis experiment and the thermal-shift assay on an iCycler iQ Real Time Detection System (Bio-Rad) were performed for each purified protein. In the thermal shift assay, protein unfolding was evaluated through measuring the fluorescence changes of fluorescent dye Sypro Orange with purified β-catenin proteins. A temperature increment of 1° C./min was applied to monitor protein stability and detect protein aggregation. CD spectra were measured on a J-815 spectropolarimeter (Jasco). All spectra were recorded using a 1 mm path-length quartz cell. The CD spectra were averaged over three scans, and the wavelength was scanned from 260 to 190 nm in step of 1 nm. All spectra were recorded at room temperature, and the baseline was corrected by subtracting the CD spectra of a blank control containing all of the substances except protein. Samples were prepared at a concentration around 1-5 μM in a buffer of 10 mM potassium phosphate and 100 mM potassium fluoride at pH 7.0 to ensure that the transmission of light through the sample was not restricted. All proteins were stable, and no aggregation was observed under storage or assay conditions. Proteins were aliquoted and stored at −80° C. C-terminally fluorescein-labeled human Tcf4 (residues 7-51) was synthesized and HPLC purified with purity >95%. The structures were validated by LC/MS (liquid chromatography/mass spectrometry).
FP Assays. The procedures for the FP competitive inhibition assays have been described previously (Zhang, M.; Huang, Z.; Yu, B.; Ji, H. New homogeneous high-throughput assays for inhibitors of β-catenin/Tcf protein-protein interactions Anal. Biochem. 2012, 424, 57-63; Zhang, M.; Catrow, J. L.; Ji, H. High-throughput selectivity assays for small-molecule inhibitors of β-catenin/T-cell factor protein-protein interactions. ACS Med. Chem. Lett. 2013, 4, 306-311). Briefly, all of the tested compounds were prepared as 10 mM DMSO stocks. In the primary screen, the concentrations of the compounds and DMSO were set to 50 μM and 1% (v/v). Only the compounds which FP signal decreases were greater than 50% in the single-point β-catenin/Tcf assay were evaluated by counter screen. […] In the FP competitive inhibition assay, 10 nM human β-catenin and 2.5 nM of C-terminally fluorescein-labeled human Tcf4 were incubated in an assay buffer of 137 mM NaCl, 2.7 mM KCl, 10 mM Na2HPO4, 2 mM KH2PO4, 100 μg/mL of bovine γ-globulin, and 0.01% Triton-X100 for 15 min at 4° C. Bovine γ-globulin and Triton-X100 were included in the assay buffer to decrease the likelihood of compound acting by aggregate formation. Different concentrations of the tested compounds in the assay buffer were added to each test plate to make a final volume of 100 μL. Each assay plate was covered black and gently mixed on an orbital shaker at 4° C. for 1.5 h to reach equilibrium before the polarization values were read. The IC50 value was determined by nonlinear least-square analysis of GraphPad Prism 5.0. The Ki values were derived (Nikolovska-Coleska, Z.; Wang, R.; Fang, X.; Pan, H.; Tomita, Y.; Li, P.; Roller, P. P.; Krajewski, K.; Saito, N. G.; Stuckey, J. A.; Wang, S. Development and optimization of a binding assay for the XIAP BIR3 domain using fluorescence polarization. Anal. Biochem. 2004, 332, 261-273). […]

[1] = Assay 1, mean ± SD (n = 3), read-out: Ki ± SD, Assay 1
[2] = Assay 2, mean ± SD (n = 3), read-out: Ki ± SD, Assay 2

**Q.** Which Ki [1] does the source give for `COc1ccc2sc(CCc3c(CCc4ccc(Cl)cc4)c4cc(C(=O)NCc5ccccc5Br)ccc4n3CCc3nn[nH]n3)nc2c1` [Compound 52, 1-(2-(2H-tetrazol-5-yl)ethyl)-N-(2-bromobenzyl)-3-(4-chlorophenethyl)-2-(2-(5-methoxybenzo[d]thiazol-2-yl)ethyl)-1H-indole-5-carboxamide] here?
**A.** 1500 ± 170 nM

**Q.** And the Ki [2]?
**A.** 2600 ± 590 nM

**Q.** How did the Ki [1] turn out when `COc1ccc2sc(CCc3c(CCc4ccc(Cl)cc4)c4cc(C(=O)NCc5cccc(Cl)c5)ccc4n3CCc3nn[nH]n3)nc2c1` [Compound 53, 1-(2-(2H-tetrazol-5-yl)ethyl)-N-(3-chlorobenzyl)-3-(4-chlorophenethyl)-2-(2-(5-methoxybenzo[d]thiazol-2-yl)ethyl)-1H-indole-5-carboxamide] was run?
**A.** 2700 ± 340 nM

**Q.** What about the Ki [2] of the same compound?
**A.** 6100 ± 1200 nM

**Q.** Which Ki [1] does the source give for `COc1ccc2sc(CCc3c(CCc4ccc(Cl)cc4)c4cc(C(=O)NCc5ccsc5)ccc4n3CCc3nn[nH]n3)nc2c1` [Compound 59, 1-(2-(2H-tetrazol-5-yl)ethyl)-3-(4-chlorophenethyl)-2-(2-(5-methoxybenzo[d]thiazol-2-yl)ethyl)-N-(thiophen-3-ylmethyl)-1H-indole-5-carboxamide] here?
**A.** 830 ± 48 nM

**Q.** And the Ki [2]?
**A.** 3700 ± 230 nM

**Q.** Which results are given for `COc1ccc2sc(CCc3c(CCc4ccc(Cl)cc4)c4cc(C(=O)NCC5CCCCC5)ccc4n3CCc3nn[nH]n3)nc2c1` [Compound 63, 1-(2-(2H-tetrazol-5-yl)ethyl)-3-(4-chlorophenethyl)-N-(cyclohexylmethyl)-2-(2-(5-methoxybenzo[d]thiazol-2-yl)ethyl)-1H-indole-5-carboxamide]?
**A.** Ki [1]: 1400 ± 200 nM; Ki [2]: 4300 ± 390 nM

**Q.** `COc1ccc2sc(CCc3c(CCc4ccc(Cl)cc4)c4cc(C(=O)NCC5CCOCC5)ccc4n3CCc3nn[nH]n3)nc2c1` [Compound 64, 1-(2-(2H-tetrazol-5-yl)ethyl)-3-(4-chlorophenethyl)-2-(2-(5-methoxybenzo[d]thiazol-2-yl)ethyl)-N-((tetrahydro-2H-pyran-4-yl)methyl)-1H-indole-5-carboxamide] was tested. Which Ki [1] did it give?
**A.** 5400 ± 760 nM

**Q.** What about the Ki [2] of the same compound?
**A.** 9500 ± 1500 nM

**Q.** With `COc1ccc2sc(CCc3c(CCc4ccc(Cl)cc4)c4cc(C(=O)NCC5CCOC5)ccc4n3CCc3nn[nH]n3)nc2c1` (stereo not drawn) [Compound 65, 1-(2-(2H-tetrazol-5-yl)ethyl)-3-(4-chlorophenethyl)-2-(2-(5-methoxybenzo[d]thiazol-2-yl)ethyl)-N-((tetrahydrofuran-3-yl)methyl)-1H-indole-5-carboxamide] as the compound, how does the Ki [1] read?
**A.** 6100 ± 760 nM

**Q.** For `COc1ccc2sc(CCc3c(CCc4ccc(Cl)cc4)c4cc(C(=O)NCC(O)CO)ccc4n3CCc3nn[nH]n3)nc2c1` (stereo not drawn) [Compound 66, 1-(2-(2H-tetrazol-5-yl)ethyl)-3-(4-chlorophenethyl)-N-(2,3-dihydroxypropyl)-2-(2-(5-methoxybenzo[d]thiazol-2-yl)ethyl)-1H-indole-5-carboxamide], which Ki [1] is on record?
**A.** 3700 ± 190 nM

**Q.** And the Ki [2]?
**A.** 32000 ± 3800 nM

**Q.** Which results are given for `COc1ccc2sc(CCc3c(CCc4ccc(Cl)cc4)c4cc(C(=O)NCC5CCNCC5)ccc4n3CCc3nn[nH]n3)nc2c1` [Compound 67, 4-((1-(2-(2H-tetrazol-5-yl)ethyl)-3-(4-chlorophenethyl)-2-(2-(5-methoxybenzo[d]thiazol-2-yl)ethyl)-1H-indole-5-carboxamido)methyl)piperidin-1-ium]?
**A.** Ki [1]: 5900 ± 370 nM; Ki [2]: > 22000 nM

**Q.** Which results are given for `COc1ccc2sc(CCc3c(CCc4ccc(Cl)cc4)c4cc(C(=O)N[C@H]5CC[C@@H](N)CC5)ccc4n3CCc3nn[nH]n3)nc2c1` [Compound 68, (1s,4s)-4-(1-(2-(2H-tetrazol-5-yl)ethyl)-3-(4-chlorophenethyl)-2-(2-(5-methoxybenzo[d]thiazol-2-yl)ethyl)-1H-indole-5-carboxamido)cyclohexan-1-aminium]?
**A.** Ki [1]: > 24000 nM; Ki [2]: > 22000 nM

**Q.** For `COc1ccc2sc(CCc3c(CCc4ccc(Cl)cc4)c4cc(C(=O)N[C@H]5CC[C@H](N)CC5)ccc4n3CCc3nn[nH]n3)nc2c1` [Compound 69, (1r,4r)-4-(1-(2-(2H-tetrazol-5-yl)ethyl)-3-(4-chlorophenethyl)-2-(2-(5-methoxybenzo[d]thiazol-2-yl)ethyl)-1H-indole-5-carboxamido)cyclohexan-1-aminium], which Ki [1] is on record?
**A.** > 24000 nM

**Q.** What about the Ki [2] of the same compound?
**A.** > 22000 nM

**Q.** Which Ki [1] does the source give for `COc1ccc2sc(C#Cc3c(CCc4ccc(Cl)cc4)c4cc(C(=O)O)ccc4n3CCc3nn[nH]n3)nc2c1` [Compound 71, 1-(2-(2H-tetrazol-5-yl)ethyl)-3-(4-chlorophenethyl)-2-((5-methoxybenzo[d]thiazol-2-yl)ethynyl)-1H-indole-5-carboxylic acid] here?
**A.** 180 ± 34 nM

**Q.** What about the Ki [2] of the same compound?
**A.** 290 ± 26 nM

**Q.** What about the Ki (Assay 3, mean ± SD (n = 3), read-out: Ki ± SD, Assay 3) of the same compound?
**A.** 340 ± 23 nM

**Q.** What about the Ki (Assay 4, mean ± SD (n = 3), read-out: Ki ± SD, Assay 4) of the same compound?
**A.** 450 ± 28 nM

**Q.** With `COc1ccc2nc(C#Cc3c(CCc4ccc(Cl)cc4)c4cc(C(=O)O)ccc4n3CCc3nn[nH]n3)sc2c1` [Compound 72, 1-(2-(2H-tetrazol-5-yl)ethyl)-3-(4-chlorophenethyl)-2-((6-methoxybenzo[d]thiazol-2-yl)ethynyl)-1H-indole-5-carboxylic acid] as the compound, how does the Ki [1] read?
**A.** 600 ± 39 nM

**Q.** For `COc1ccc2nc(C#Cc3c(CCc4ccc(C)cc4)c4cc(C(=O)O)ccc4n3CCc3nn[nH]n3)sc2c1` [Compound 73, 1-(2-(2H-tetrazol-5-yl)ethyl)-2-((6-methoxybenzo[d]thiazol-2-yl)ethynyl)-3-(4-methylphenethyl)-1H-indole-5-carboxylic acid], which Ki [1] is on record?
**A.** 1000 ± 76 nM

**Q.** What does the source list for `COc1ccc2nc(C#Cc3c(CCC4CCOCC4)c4cc(C(=O)O)ccc4n3CCc3nn[nH]n3)sc2c1` [Compound 74, 1-(2-(2H-tetrazol-5-yl)ethyl)-2-((6-methoxybenzo[d]thiazol-2-yl)ethynyl)-3-(2-(tetrahydro-2H-pyran-4-yl)ethyl)-1H-indole-5-carboxylic acid]?
**A.** Ki [1]: 4200 ± 290 nM; Ki [2]: 6000 ± 390 nM

**Q.** Which Ki [1] does the source give for `COc1ccc2nc(C#Cc3c(CCc4ccc5c(c4)OCCO5)c4cc(C(=O)O)ccc4n3CCc3nn[nH]n3)sc2c1` [Compound 75, 1-(2-(2H-tetrazol-5-yl)ethyl)-3-(2-(2,3-dihydrobenzo[b][1,4]dioxin-6-yl)ethyl)-2-((6-methoxybenzo[d]thiazol-2-yl)ethynyl)-1H-indole-5-carboxylic acid] here?
**A.** 1800 ± 110 nM

**Q.** What about the Ki [2] of the same compound?
**A.** 680 ± 59 nM

**Q.** With `Cc1ccc(CCc2c(-c3cccs3)n(CCc3nn[nH]n3)c3ccc(C(=O)O)cc23)cc1` [Compound 77, 1-(2-(2H-tetrazol-5-yl)ethyl)-3-(4-methylphenethyl)-2-(thiophen-2-yl)-1H-indole-5-carboxylic acid] as the compound, how does the Ki [1] read?
**A.** 1600 ± 110 nM
